Assay results taken from patent US20120101093A1, “SUBSTITUTED IMIDAZO[1,2-A]PYRIDINE DERIVATIVES, PHARMACEUTICAL COMPOSITIONS, AND METHODS OF USE AS BETA-SECRETASE INHIBITORS” (HIGH POINT PHARMACEUTICALS, LLC, priority 2009, published 2012).

Biological target: T1, BACE-1 enzyme (Homo sapiens, UniProt P56817)
T1 construct: purchased R & D Systems 931AS
Experiment: BACE Fluorescence Resonance Energy Transfer (FRET) Assay
Assay type: biochemical
Conditions: pH 4-4.5, 30 min pre-incubation, about 1.5 hours reaction
In short: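 Fluorescence (ex 540, em 585 nm) after ~1.5 h room-temperature cleavage of a quenched rhodamine peptide tracks BACE-1 activity. Enzyme and compound first sit 30 min in pH 4-4.5 acetate buffer with CHAPS, Triton X-100, EDTA, 7.5% DMSO. Values given as IC50 or % inhibition.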

T1 sequence (P56817 46-457 limits assumed): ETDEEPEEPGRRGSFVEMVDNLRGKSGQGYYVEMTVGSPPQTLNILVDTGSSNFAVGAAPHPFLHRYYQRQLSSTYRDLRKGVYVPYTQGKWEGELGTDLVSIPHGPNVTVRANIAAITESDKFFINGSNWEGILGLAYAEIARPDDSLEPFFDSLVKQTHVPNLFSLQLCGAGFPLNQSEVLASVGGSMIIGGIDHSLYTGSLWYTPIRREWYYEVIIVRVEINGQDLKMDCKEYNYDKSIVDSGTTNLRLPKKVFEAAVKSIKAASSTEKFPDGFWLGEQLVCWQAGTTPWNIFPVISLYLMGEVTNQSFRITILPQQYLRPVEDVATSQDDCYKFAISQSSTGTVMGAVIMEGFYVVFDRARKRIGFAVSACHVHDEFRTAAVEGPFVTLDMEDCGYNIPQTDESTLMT

In order of rising IC50:
1. O=C(Nc1nc2cc(-c3cc(F)cc(Cl)c3)ccc2[nH]1)c1cn2c(N3CCC(O)CC3)cccc2n1 [Example 158, 5-(4-Hydroxy-piperidin-1-yl)-imidazo[1,2-a]pyridine-2-carboxylic acid [5-(3-chloro-5-fluoro-phenyl)-1H-benzoimidazol-2-yl]-amide]  0.1 µM
2. O=C(Nc1nc2cc(-c3cc(F)cc(Cl)c3)ccc2[nH]1)c1cn2c(N3CC[C@H](O)C3)cccc2n1 [Example 155, 5-((S)-3-Hydroxy-pyrrolidin-1-yl)-imidazo[1,2-a]pyridine-2-carboxylic acid [5-(3-chloro-5-fluoro-phenyl)-1H-benzoimidazol-2-yl]-amide]  0.25 µM
3. CO[C@@H]1CCN(c2cccc3nc(C(=O)Nc4nc5cc(-c6cc(F)cc(Cl)c6)ccc5[nH]4)cn23)C1 [Example 156, 5-((R)-3-Methoxy-pyrrolidin-1-yl)-imidazo[1,2-a]pyridine-2-carboxylic acid [5-(3-chloro-5-fluoro-phenyl)-1H-benzoimidazol-2-yl]-amide]  0.29 µM
4. CC(C)CNCc1cccc2nc(C(=O)Nc3nc4cc(-c5cccc(C(F)(F)F)c5)ccc4[nH]3)cn12 [Example 164, 5-(Isobutylamino-methyl)-imidazo[1,2-a]pyridine-2-carboxylic acid [5-(3-trifluoromethyl-phenyl)-1H-benzoimidazol-2-yl]-amide]  0.3 µM
5. CO[C@H]1CCN(c2cccc3nc(C(=O)Nc4nc5cc(-c6cc(F)cc(Cl)c6)ccc5[nH]4)cn23)C1 [Example 157, 5-((S)-3-Methoxy-pyrrolidin-1-yl)-imidazo[1,2-a]pyridine-2-carboxylic acid [5-(3-chloro-5-fluoro-phenyl)-1H-benzoimidazol-2-yl]-amide]  0.32 µM
6. CO[C@H]1CCN(c2cc(F)cn3cc(C(=O)Nc4nc5cc(-c6cc(F)cc(Cl)c6)ccc5[nH]4)nc23)C1 [Example 159, 6-Fluoro-8-((S)-3-methoxy-pyrrolidin-1-yl)-imidazo[1,2-a]pyridine-2-carboxylic acid [5-(3-chloro-5-fluoro-phenyl)-1H-benzoimidazol-2-yl]-amide]  0.34 µM
7. CC(C)(C)NCc1ccc2nc(C(=O)Nc3nc4cc(-c5cccc(C(F)(F)F)c5)ccc4[nH]3)cn2c1 [Example 178, 6-(Tert-Butylamino-methyl)-imidazo[1,2-a]pyridine-2-carboxylic acid [5-(3-trifluoromethyl-phenyl)-1H-benzoimidazol-2-yl]-amide]  0.43 µM
8. O=C(Nc1nc2cc(-c3cccc(C(F)(F)F)c3)ccc2[nH]1)c1cn2cc(CNCc3ccccc3)ccc2n1 [Example 186, 6-(Benzylamino-methyl)-imidazo[1,2-a]pyridine-2-carboxylic acid [5-(3-trifluoromethyl-phenyl)-1H-benzoimidazol-2-yl]-amide]  0.43 µM
9. O=C(Nc1nc2cc(-c3cccc(C(F)(F)F)c3)ccc2[nH]1)c1cn2c(CN3CCCC3)cccc2n1 [Example 175, 5-Pyrrolidin-1-ylmethyl-imidazo[1,2-a]pyridine-2-carboxylic acid [5-(3-trifluoromethyl-phenyl)-1H-benzoimidazol-2-yl]-amide]  0.49 µM
10. O=C(Nc1nc2cc(-c3cccc(C(F)(F)F)c3)ccc2[nH]1)c1cn2cc(CNC3CCCC3)ccc2n1 [Example 180, 6-Cyclopentylaminomethyl-imidazo[1,2-a]pyridine-2-carboxylic acid [5-(3-trifluoromethyl-phenyl)-1H-benzoimidazol-2-yl]-amide]  0.51 µM
11. CCNCc1ccc2nc(C(=O)Nc3nc4cc(-c5cccc(C(F)(F)F)c5)ccc4[nH]3)cn2c1 [Example 187, 6-Ethylaminomethyl-imidazo[1,2-a]pyridine-2-carboxylic acid [5-(3-trifluoromethyl-phenyl)-1H-benzoimidazol-2-yl]-amide]  0.51 µM
12. CN1CCN(Cc2ccc3nc(C(=O)Nc4nc5cc(-c6cccc(C(F)(F)F)c6)ccc5[nH]4)cn3c2)CC1 [Example 183, 6-(4-Methyl-piperazin-1-ylmethyl)-imidazo[1,2-a]pyridine-2-carboxylic acid [5-(3-trifluoromethyl-phenyl)-1H-benzoimidazol-2-yl]-amide]  0.56 µM
13. O=C(Nc1nc2cc(-c3cccc(C(F)(F)F)c3)ccc2[nH]1)c1cn2c(CNCc3ccccc3)cccc2n1 [Example 173, 5-(Benzylamino-methyl)-imidazo[1,2-a]pyridine-2-carboxylic acid [5-(3-trifluoromethyl-phenyl)-1H-benzoimidazol-2-yl]-amide]  0.57 µM
14. CCN(CC)Cc1cccc2nc(C(=O)Nc3nc4cc(-c5cccc(C(F)(F)F)c5)ccc4[nH]3)cn12 [Example 168, 5-Diethylaminomethyl-imidazo[1,2-a]pyridine-2-carboxylic acid [5-(3-trifluoromethyl-phenyl)-1H-benzoimidazol-2-yl]-amide]  0.65 µM
15. CO[C@@H]1CCN(c2cc(F)cn3cc(C(=O)Nc4nc5cc(-c6cc(F)cc(Cl)c6)ccc5[nH]4)nc23)C1 [Example 160, 6-Fluoro-8-((R)-3-methoxy-pyrrolidin-1-yl)-imidazo[1,2-a]pyridine-2-carboxylic acid [5-(3-chloro-5-fluoro-phenyl)-1H-benzoimidazol-2-yl]-amide]  0.75 µM
16. O=C(Nc1nc2cc(-c3cccc(C(F)(F)F)c3)ccc2[nH]1)c1cn2c(CN3CCCCC3)cccc2n1 [Example 166, 5-Piperidin-1-ylmethyl-imidazo[1,2-a]pyridine-2-carboxylic acid [5-(3-trifluoromethyl-phenyl)-1H-benzoimidazol-2-yl]-amide]  0.79 µM
17. CN(C)Cc1ccc2nc(C(=O)Nc3nc4cc(-c5cccc(C(F)(F)F)c5)ccc4[nH]3)cn2c1 [Example 181, 6-Dimethylaminomethyl-imidazo[1,2-a]pyridine-2-carboxylic acid [5-(3-trifluoromethyl-phenyl)-1H-benzoimidazol-2-yl]-amide]  0.8 µM
18. CCN(C)Cc1cccc2nc(C(=O)Nc3nc4cc(-c5cccc(C(F)(F)F)c5)ccc4[nH]3)cn12 [Example 189, 5-[(Ethyl-methyl-amino)-methyl]-imidazo[1,2-a]pyridine-2-carboxylic acid [5-(3-trifluoromethyl-phenyl)-1H-benzoimidazol-2-yl]-amide]  0.95 µM
19. CN(Cc1ccccc1)Cc1cccc2nc(C(=O)Nc3nc4cc(-c5cccc(C(F)(F)F)c5)ccc4[nH]3)cn12 [Example 190, 5-[(Benzyl-methyl-amino)-methyl]-imidazo[1,2-a]pyridine-2-carboxylic acid [5-(3-trifluoromethyl-phenyl)-1H-benzoimidazol-2-yl]-amide]  1.28 µM
20. CC(C)CN(C)Cc1cccc2nc(C(=O)Nc3nc4cc(-c5cccc(C(F)(F)F)c5)ccc4[nH]3)cn12 [Example 191, 5-[(Isobutyl-methyl-amino)-methyl]-imidazo[1,2-a]pyridine-2-carboxylic acid [5-(3-trifluoromethyl-phenyl)-1H-benzoimidazol-2-yl]-amide]  1.53 µM
21. CC(C)(C)NCc1cccn2cc(C(=O)Nc3nc4cc(-c5cccc(C(F)(F)F)c5)ccc4[nH]3)nc12 [Example 193, 8-(tert-Butylamino-methyl)-imidazo[1,2-a]pyridine-2-carboxylic acid [5-(3-trifluoromethyl-phenyl)-1H-benzoimidazol-2-yl]-amide]  1.65 µM
